Reference: paper PMC8151276, “An Integrated Approach toward NanoBRET Tracers for Analysis of GPCR Ligand Engagement” (Molecules, 2021)

Experiments:
CCR6 = biological target: T1, CCR6 (Homo sapiens, UniProt P51684); assay: NanoBRET screen HiBiT-CCR6 in HEK293; format: binding; details: CCR6
T1 construct: purchased Promega (in-house HiBiT-GPCR construct library, NanoBRET)
T1 sequence (P51684 1-374): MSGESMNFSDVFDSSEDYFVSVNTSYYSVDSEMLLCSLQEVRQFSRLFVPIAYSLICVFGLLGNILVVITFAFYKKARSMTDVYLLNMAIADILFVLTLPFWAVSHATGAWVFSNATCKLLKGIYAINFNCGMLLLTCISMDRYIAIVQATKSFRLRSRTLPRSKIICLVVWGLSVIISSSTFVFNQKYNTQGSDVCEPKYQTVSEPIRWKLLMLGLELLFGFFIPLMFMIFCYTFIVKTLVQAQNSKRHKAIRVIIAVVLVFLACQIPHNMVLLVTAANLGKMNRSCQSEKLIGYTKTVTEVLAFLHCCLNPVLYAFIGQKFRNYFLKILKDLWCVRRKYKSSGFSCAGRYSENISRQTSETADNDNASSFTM
Description: (§1) Each tracer candidate was screened across the entire library of HiBiT-GPCR constructs using NanoBRET as the detection modality. As depicted in Figure 4A, the specificity of interactions was evaluated through decrease in BRET due to competitive displacement of a bound tracer by excess parental compound. Each tracer was analyzed for binding to each HiBiT-GPCR fusion in the absence and in the presence of competing parental compound. Briefly, HEK293 cells were transfected with HiBiT-GPCR constructs diluted into promoterless DNA to reduce expression and maximize translocation to the cell surface. Each tracer candidate was then screened at concentrations of 1 μM and 0.1 μM across cells expressing these fusions. Cells were treated for 1.5 h with tracer either alone or in the presence of 20 μM competing parental compound (i.e., control). BRET was measured upon addition of purified LgBiT and subsequent complementation with HiBiT genetically fused to a GPCR. The specificity of interactions was assessed through a decrease in BRET signal due to competitive displacement of the bound tracer. To further gauge the robustness of these interactions, the fold response over the control (i.e., BRETtracer/BRETcontrol) was calculated. We chose a 1.5-fold response, which translates to ≥7-fold signal over noise as the minimal threshold required to score an interaction as positive. […]. Below we highlight the screening results obtained for our exemplary fluorescent tracers based on Clozapine, Amitriptyline and AZD1283.
(§2) HiBiT-GPCR DNA constructs were diluted in 10 mM Tris pH 8 to a final concentration of 0.01 μg/μL, arrayed in 96-well plates and stored at −20 °C. For transfection, HEK293 cells were suspended in Opti-MEM (without phenol red) supplemented with 2% fetal bovine serum (Seradigm) and 100 units/mL penicillin–streptomycin (Gibco) at a final concentration of 220,000 cells/mL and dispensed into white 96-well plates at 90 μL/well. Subsequent transfections and screens were carried using an Agilent Bravo Automated Liquid Handling Platform. First, the 96-well HiBiT DNA arrays were diluted 25-fold in Opti-MEM (without serum or phenol red) to a final concentration of 0.0004 μg/μL and 20 μL of the diluted DNAs were transferred into new 96-well plates. Next, promoterless carrier DNA (1 μg/μL) was diluted 25-fold (0.04 μg/μL) and then dispensed into the diluted arrays at 20 μL/well. Following brief mixing, Viafect transfection reagent (Promega) diluted 16-fold into Opti-MEM was dispensed into the plates at 40 μL/well. After mixing by pipetting, plates were incubated for 10 min on the pipetting station deck. The DNA-transfection reagent complexes were then added to plates containing cells. To facilitate the screen, 10 μL of DNA-transfection reagent complexes were added in duplicates to the top 4 and bottom 4 rows, resulting in two identical 48-well arrays per plate. Plates with transfected cells were incubated for 18–20 h at 37 °C/5% CO2. A screen of each tracer across the entire library using two different concentrations requires duplicate plates of transfected cells. Depending on the number of tracers being screened, transfections can be scaled up using the same ratios. The next day, for each tracer, four 20× screening solutions in tracer dilution buffer (Promega) were prepared: two duplicates at final concentration of 20 μM and two duplicates at a final concentration of 2 μM. A competing unmodified compound was added to one of each duplicate at a final concentration of 400 μM. The four resulting solutions were diluted 4-fold in Opti-MEM without serum or phenol red to generate 5× solutions (5 µM and 0.5 µM tracer +/− 100 μM competing compound). To screen the library, a BioTek MultiFlo FX liquid dispenser was used to dispense 22.5 µL of tracer solution to the top 4 rows and 22.5 µL tracer + competing compound solution to the 4 bottom rows. Plates were briefly mixed on an orbital shaker and incubated for 1.5 h at room temperature. […]

P2RY11 = biological target: T2, P2RY11 (Homo sapiens, UniProt Q96G91); assay: NanoBRET screen HiBiT-P2RY11 in HEK293; format: binding; details: P2RY11
T2 construct: purchased Promega (in-house HiBiT-GPCR construct library, NanoBRET)
T2 sequence (Q96G91 1-374): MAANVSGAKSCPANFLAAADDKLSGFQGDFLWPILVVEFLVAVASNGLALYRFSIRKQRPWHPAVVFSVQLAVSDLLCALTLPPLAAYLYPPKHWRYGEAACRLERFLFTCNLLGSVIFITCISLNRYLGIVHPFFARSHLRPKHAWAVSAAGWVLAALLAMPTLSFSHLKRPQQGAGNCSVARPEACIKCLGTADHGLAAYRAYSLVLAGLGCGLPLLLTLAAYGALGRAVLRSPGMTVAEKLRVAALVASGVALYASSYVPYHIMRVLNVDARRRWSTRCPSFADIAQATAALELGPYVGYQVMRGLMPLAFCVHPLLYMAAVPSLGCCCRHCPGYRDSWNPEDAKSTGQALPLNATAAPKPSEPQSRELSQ
Description: as §1, §2

SMILES | NanoBRET Fold Response (CCR6; tracer 0.1μM) | NanoBRET Fold Response (CCR6; tracer 1μM) | NanoBRET Fold Response (P2RY11; tracer 0.1μM) | NanoBRET Fold Response (P2RY11; tracer 1μM)
CC(C)N(CC[C@H](c1ccccc1)c1cc(CCNC(=O)CCOCCOCCOCCOCCNC(=O)CCc2ccc3n2[B-](F)(F)[N+]2=C(c4ccc[nH]4)C=CC2=C3)ccc1O)C(C)C [Tolterodine-2-NB590] | 1.07 | 1.01 | 1.31 | 0.83
CC(C)N(CC[C@H](c1ccccc1)c1cc(CCNC(=O)c2ccc(CNC(=O)CCc3ccc4n3[B-](F)(F)[N+]3=C(c5ccc[nH]5)C=CC3=C4)cc2)ccc1O)C(C)C [Tolterodine-BZ-NB590] | 1.05 | 1.03 | 1.07 | 0.96
CCCn1c(=O)c2[nH]c(-c3ccc(OCC(=O)NCCNC(=O)CCOCCNC(=O)c4ccc(CNC(=O)CCc5ccc6n5[B-](F)(F)[N+]5=C(c7ccc[nH]7)C=CC5=C6)cc4)cc3)nc2n(CCC)c1=O [XAC-3-NB590] | 1.00 | 1.26 | 1.21 | 1.25
